Laboratory results from patent US20250388602A1 (Genase Therapeutics B.V., priority 2022, published 2025).
pIC50: −log10 of the molar value. Read-outs that look alike come from different tables or passages of the source.

Legend:
recombinant human DHODH = recombinant human DHODH (Homo sapiens (Human), UniProt Q02127); assay: DHODH enzyme assay (Assay A), DCIP absorbance; type: biochemical
Procedure: Inhibition of human dihydroorotate dehydrogenase (DHODH) by example compounds as described herein was determined using one of two assays as described below.
DHODH enzyme assays were performed with 6 nM recombinant human DHODH (purified essentially as described by Walse et al., Biochemistry, 47, 8929-8936 (2008)). The reaction mixture consisted of 1 mM DL-dihydroorotic acid (#D7003, Sigma-Aldrich), 100 μM 3,4-dimethoxy-5-methyl-p-benzoquinone (#D9150, Sigma-Aldrich), and 100 μM 2,6-dichlorophenolindophenol sodium salt (DCIP) (#D1878, Sigma-Aldrich) in enzyme buffer (50 mM Tris-HCl pH 8.0, 0.1% Triton X-100, 150 mM KCl). A stock solution of 20 mM DCIP was prepared in enzyme buffer and filtered through Whatman paper just before use. Reactions were performed in a total volume of 100 μL, consisting of 1 μL of compound, 49 μL of enzyme and 50 μL of reaction mixture. Loss in absorbance by chromogen DCIP was measured at 595 nm following a 70 minute incubation at 32° C.

MOLM-13 cells = assay: MOLM-13 cell viability (Assay B), Cell Titer-Glo; type: cell-based; conditions: Homo sapiens, read-out: IC50 MOLM13 inhibition activity
Procedure: MOLM-13 cells (an acute myeloid leukemia cell line) were plated in RPMI supplied with 10% FBS and 1% Pen/Strep in 384-well plates at 1,000 cells per well on day 0. On day 1, treatment of the cells with compound (concentration range 10E-5 and 6E-12 M) was initiated in the presence or absence of 100 μM uridine. After 72 hours incubation of the cells with or without test compound, the number of viable cells per well was assessed by Cell Titer-Glo Luminescent Cell Viability Assay (Promega, Madison, WI, USA). […] Each condition was tested in duplicate and the potency of test compounds was determined from two independent experiments.

[1] = bins ≥10 nM-<100 nM and <10 nM, read-out: IC50 DHODH inhibition activity
[2] = MOLM-13, 72 hours, bins ≥10 nM-<100 nM and <10 nM
[3] = bin ≥1 μM-<10 μM, read-out: IC50 DHODH inhibition activity

Sequence of recombinant human DHODH (Q02127 whole entry): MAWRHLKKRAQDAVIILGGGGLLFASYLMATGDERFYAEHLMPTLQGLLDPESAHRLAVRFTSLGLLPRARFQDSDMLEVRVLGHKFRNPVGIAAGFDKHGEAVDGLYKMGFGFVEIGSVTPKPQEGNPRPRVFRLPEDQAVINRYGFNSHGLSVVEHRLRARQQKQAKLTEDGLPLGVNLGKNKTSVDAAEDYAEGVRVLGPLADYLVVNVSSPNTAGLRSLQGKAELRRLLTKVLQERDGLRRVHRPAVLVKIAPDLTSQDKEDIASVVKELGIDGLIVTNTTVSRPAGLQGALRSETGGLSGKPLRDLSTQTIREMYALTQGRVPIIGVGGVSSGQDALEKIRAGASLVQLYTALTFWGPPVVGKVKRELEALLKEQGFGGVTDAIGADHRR

In the case of `COc1cccc(-n2ncc3c2COC[C@H]3NC(=O)c2noc3c2CCCC3)c1Cl` [Ex-25, (S)—N-(1-(2-chloro-3-methoxyphenyl)-1,4,5,7-tetrahydropyrano[3,4-c]pyrazol-4-yl)-4,5,6,7-tetrahydrobenzo[d]isoxazole-3-carboxamide], the pIC50 (recombinant human DHODH; [1]) was 7.00 to 8.00 and the pIC50 (MOLM-13 cells; [2]) was > 8.00.

For `COCCOc1cccc(-n2ncc3c2COC[C@H]3NC(=O)c2ncn3c2CCCC3)c1Cl` [Ex-67, (S)—N-(1-(2-chloro-3-(2-methoxyethoxy)phenyl)-1,4,5,7-tetrahydropyrano[3,4-c]pyrazol-4-yl)-5,6,7,8-tetrahydroimidazo[1,5-a]pyridine-1-carboxamide], the pIC50 (recombinant human DHODH; read-out: IC50 DHODH inhibition activity) was > 8.00 and the pIC50 (MOLM-13 cells; [2]) was > 8.00.

`COc1ccc(F)c(-n2ncc3c2COC[C@H]3NC(=O)c2cc(C)c(C)cn2)c1Cl` [Ex-33, (S)—N-(1-(2-chloro-6-fluoro-3-methoxyphenyl)-1,4,5,7-tetrahydropyrano[3,4-c]pyrazol-4-yl)-4,5-dimethylpicolinamide] was tested, and the pIC50 (recombinant human DHODH; [1]) was 7.00 to 8.00 and the pIC50 (MOLM-13 cells; [2]) was 7.00 to 8.00.

With `CCc1c(C(=O)N[C@@H]2COCc3c2cnn3-c2cccc(C)c2Cl)ncn1C` [Ex-15, (S)—N-(1-(2-chloro-3-methylphenyl)-1,4,5,7-tetrahydropyrano[3,4-c]pyrazol-4-yl)-5-ethyl-1-methyl-1H-imidazole-4-carboxamide] the pIC50 (recombinant human DHODH; [1]) was > 8.00 and the pIC50 (MOLM-13 cells; [2]) was > 8.00.

Work on `COc1cccc(Cl)c1-n1ncc2c1COC[C@H]2NC(=O)c1ncn2c1CCCC2` [Ex-60, (S)—N-(1-(2-chloro-6-methoxyphenyl)-1,4,5,7-tetrahydropyrano[3,4-c]pyrazol-4-yl)-5,6,7,8-tetrahydroimidazo[1,5-a]pyridine-1-carboxamide] yielded a pIC50 (recombinant human DHODH; [1]) of 7.00 to 8.00 and a pIC50 (MOLM-13 cells; [2]) of 7.00 to 8.00.

Work on `CCc1c(C(=O)N[C@@H]2COCc3c2cnn3-c2c(C)cccc2Cl)n[nH]c1C` [Ex-39, (S)—N-(1-(2-chloro-6-methylphenyl)-1,4,5,7-tetrahydropyrano[3,4-c]pyrazol-4-yl)-4-ethyl-5-methyl-1H-pyrazole-3-carboxamide] yielded a pIC50 (recombinant human DHODH; [1]) of 7.00 to 8.00 and a pIC50 (MOLM-13 cells; MOLM-13, 72 h) of 7.00 to 8.00.

For `CS(=O)(=O)c1cccc(-n2ncc3c2COC[C@H]3NC(=O)c2ncn3c2CCCC3)c1` [Ex-49, (S)—N-(1-(3-(methylsulfonyl)phenyl)-1,4,5,7-tetrahydropyrano[3,4-c]pyrazol-4-yl)-5,6,7,8-tetrahydroimidazo[1,5-a]pyridine-1-carboxamide], the pIC50 (recombinant human DHODH; [3]) was 5.00 to 6.00.

With `CCc1c(C(=O)N[C@@H]2COCc3c2cnn3-c2cccc(OC)c2Cl)n[nH]c1C` [Ex-26, (S)—N-(1-(2-chloro-3-methoxyphenyl)-1,4,5,7-tetrahydropyrano[3,4-c]pyrazol-4-yl)-4-ethyl-5-methyl-1H-pyrazole-3-carboxamide] the pIC50 (recombinant human DHODH; [1]) was > 8.00 and the pIC50 (MOLM-13 cells; [2]) was > 8.00.

With `O=C(N[C@@H]1COCc2c1cnn2-c1cccc(C(=O)N2CCCCC2)c1Cl)c1ncn2c1CCCC2` [Ex-72, (S)—N-(1-(2-chloro-3-(piperidine-1-carbonyl)phenyl)-1,4,5,7-tetrahydropyrano[3,4-c]pyrazol-4-yl)-5,6,7,8-tetrahydroimidazo[1,5-a]pyridine-1-carboxamide] the pIC50 (recombinant human DHODH; [1]) was > 8.00 and the pIC50 (MOLM-13 cells; [2]) was > 8.00.

In the case of `Cc1cccc(Cl)c1-n1ncc2c1COC[C@H]2NC(=O)c1ncc2n1CCCC2` [Ex-36, (S)—N-(1-(2-chloro-6-methylphenyl)-1,4,5,7-tetrahydropyrano[3,4-c]pyrazol-4-yl)-5,6,7,8-tetrahydroimidazo[1,5-a]pyridine-3-carboxamide], the pIC50 (recombinant human DHODH; [1]) was > 8.00 and the pIC50 (MOLM-13 cells; [2]) was > 8.00.

With `CC(=O)NCCOc1cccc(-n2ncc3c2COC[C@H]3NC(=O)c2ncn3c2CCCC3)c1Cl` [Ex-66, (S)—N-(1-(3-(2-acetamidoethoxy)-2-chlorophenyl)-1,4,5,7-tetrahydropyrano[3,4-c]pyrazol-4-yl)-5,6,7,8-tetrahydroimidazo[1,5-a]pyridine-1-carboxamide] the pIC50 (recombinant human DHODH) was 7.00 to 8.00.

In the case of `Cc1cccc(-n2ncc3c2COC[C@H]3NC(=O)c2noc3c2CCCC3)c1Cl` [Ex-18, (S)—N-(1-(2-chloro-3-methylphenyl)-1,4,5,7-tetrahydropyrano[3,4-c]pyrazol-4-yl)-4,5,6,7-tetrahydrobenzo[d]isoxazole-3-carboxamide], the pIC50 (recombinant human DHODH; [1]) was > 8.00 and the pIC50 (MOLM-13 cells; [2]) was > 8.00.

Work on `COc1cccc(-n2ncc3c2COC[C@H]3NC(=O)c2cc(C)c(C)cn2)c1Cl` yielded a pIC50 (MOLM-13 cells; [2]) of 7.00 to 8.00.

With `CCc1c(C(=O)N[C@@H]2COCc3c2cnn3-c2c(C)cccc2Cl)ncn1C` [Ex-35, (S)—N-(1-(2-chloro-6-methylphenyl)-1,4,5,7-tetrahydropyrano[3,4-c]pyrazol-4-yl)-5-ethyl-1-methyl-1H-imidazole-4-carboxamide] the pIC50 (recombinant human DHODH; [1]) was > 8.00 and the pIC50 (MOLM-13 cells; [2]) was > 8.00.

`CN(C)C(=O)c1cccc(-n2ncc3c2COC[C@H]3NC(=O)c2ncn3c2CCCC3)c1Cl` [Ex-70, (S)—N-(1-(2-chloro-3-(dimethylcarbamoyl)phenyl)-1,4,5,7-tetrahydropyrano[3,4-c]pyrazol-4-yl)-5,6,7,8-tetrahydroimidazo[1,5-a]pyridine-1-carboxamide] gave a pIC50 (MOLM-13 cells; MOLM-13, 72 h) of 7.00 to 8.00.

For `COc1ccc(F)c(-n2ncc3c2COC[C@H]3NC(=O)c2ncc3n2CCCC3)c1Cl` [Ex-29, (S)—N-(1-(2-chloro-6-fluoro-3-methoxyphenyl)-1,4,5,7-tetrahydropyrano[3,4-c]pyrazol-4-yl)-5,6,7,8-tetrahydroimidazo[1,5-a]pyridine-3-carboxamide], the pIC50 (recombinant human DHODH; [1]) was > 8.00 and the pIC50 (MOLM-13 cells; [2]) was > 8.00.

`O=C(N[C@@H]1COCc2c1cnn2-c1cccc(OCCO)c1Cl)c1ncn2c1CCCC2` [Ex-68, (S)—N-(1-(2-chloro-3-(2-hydroxyethoxy)phenyl)-1,4,5,7-tetrahydropyrano[3,4-c]pyrazol-4-yl)-5,6,7,8-tetrahydroimidazo[1,5-a]pyridine-1-carboxamide] was tested, and the pIC50 (recombinant human DHODH) was 7.00 to 8.00 and the pIC50 (MOLM-13 cells; MOLM-13, 72 h) was 7.00 to 8.00.

Work on `O=C(N[C@H]1COCc2c1cnn2-c1c(Cl)cccc1Cl)c1ncn2c1CCCC2` (single isomer, unassigned) [Ex-12] yielded a pIC50 (MOLM-13 cells; [2]) of 7.00 to 8.00.

Compound `CN(C)C(=O)COc1cccc(-n2ncc3c2COC[C@H]3NC(=O)c2ncn3c2CCCC3)c1Cl` [Ex-64, (S)—N-(1-(2-chloro-3-(2-(dimethylamino)-2-oxoethoxy)phenyl)-1,4,5,7-tetrahydropyrano[3,4-c]pyrazol-4-yl)-5,6,7,8-tetrahydroimidazo[1,5-a]pyridine-1-carboxamide] has a pIC50 (recombinant human DHODH) of 7.00 to 8.00 and a pIC50 (MOLM-13 cells; [2]) of 7.00 to 8.00.

For `Cc1cnc(C(=O)N[C@@H]2COCc3c2cnn3-c2c(C)cccc2Cl)cc1C` [Ex-40, (S)—N-(1-(2-chloro-6-methylphenyl)-1,4,5,7-tetrahydropyrano[3,4-c]pyrazol-4-yl)-4,5-dimethylpicolinamide], the pIC50 (MOLM-13 cells; [2]) was 7.00 to 8.00.

For `COc1cccc(-n2ncc3c2COC[C@H]3NC(=O)c2n[nH]c3c2CCCC3)c1Cl` [Ex-24, (S)—N-(1-(2-chloro-3-methoxyphenyl)-1,4,5,7-tetrahydropyrano[3,4-c]pyrazol-4-yl)-4,5,6,7-tetrahydro-1H-indazole-3-carboxamide], the pIC50 (recombinant human DHODH; [1]) was 7.00 to 8.00 and the pIC50 (MOLM-13 cells; [2]) was > 8.00.

`Cc1cccc(-n2ncc3c2COC[C@H]3NC(=O)c2ncn3c2CCCC3)c1Cl` [Ex-14, (S)—N-(1-(2-chloro-3-methylphenyl)-1,4,5,7-tetrahydropyrano[3,4-c]pyrazol-4-yl)-5,6,7,8-tetrahydroimidazo[1,5-a]pyridine-1-carboxamide] was tested, and the pIC50 (recombinant human DHODH; [1]) was > 8.00 and the pIC50 (MOLM-13 cells; MOLM-13, 72 h) was > 8.00.

In the case of `O=C(N[C@H]1COCc2c1cnn2-c1ccccc1F)c1ncn2c1CCCC2` (single isomer, unassigned) [Ex-2], the pIC50 (recombinant human DHODH; [3]) was 5.00 to 6.00.

`COc1cccc(-n2ncc3c2COC[C@H]3NC(=O)c2ncn3c2CCCC3)c1Cl` [Ex-21, (S)—N-(1-(2-chloro-3-methoxyphenyl)-1,4,5,7-tetrahydropyrano[3,4-c]pyrazol-4-yl)-5,6,7,8-tetrahydroimidazo[1,5-a]pyridine-1-carboxamide] was tested, and the pIC50 (recombinant human DHODH; [1]) was > 8.00 and the pIC50 (MOLM-13 cells; MOLM-13, 72 h) was > 8.00.

In the case of `CCc1c(C(=O)N[C@@H]2COCc3c2cnn3-c2cccc(OC)c2Cl)ncn1C` [Ex-22, (S)—N-(1-(2-chloro-3-methoxyphenyl)-1,4,5,7-tetrahydropyrano[3,4-c]pyrazol-4-yl)-5-ethyl-1-methyl-1H-imidazole-4-carboxamide], the pIC50 (recombinant human DHODH; [1]) was > 8.00 and the pIC50 (MOLM-13 cells; [2]) was > 8.00.

With `O=C(N[C@H]1COCc2c1cnn2-c1ccccc1F)c1ncc2n1CCCC2` (single isomer, unassigned) [Ex-5] the pIC50 (recombinant human DHODH; [3]) was 5.00 to 6.00.

Work on `CN(C)CCOc1cccc(-n2ncc3c2COC[C@H]3NC(=O)c2ncn3c2CCCC3)c1Cl` [Ex-63, (S)—N-(1-(2-chloro-3-(2-(dimethylamino)ethoxy)phenyl)-1,4,5,7-tetrahydropyrano[3,4-c]pyrazol-4-yl)-5,6,7,8-tetrahydroimidazo[1,5-a]pyridine-1-carboxamide] yielded a pIC50 (recombinant human DHODH) of 7.00 to 8.00.

`CNC(=O)COc1cccc(-n2ncc3c2COC[C@H]3NC(=O)c2ncn3c2CCCC3)c1Cl` [Ex-65, (S)—N-(1-(2-chloro-3-(2-(methylamino)-2-oxoethoxy)phenyl)-1,4,5,7-tetrahydropyrano[3,4-c]pyrazol-4-yl)-5,6,7,8-tetrahydroimidazo[1,5-a]pyridine-1-carboxamide] showed a pIC50 (recombinant human DHODH) of 7.00 to 8.00.
